ChEMBL document CHEMBL4507319 (2021)

Experiments:
[1] = tested on: Mast/stem cell growth factor receptor Kit (Homo sapiens), P10721 [D816H]; conditions: Compound concentration 1000.0 nM
[2] = target: Death-associated protein kinase 3 (Homo sapiens) (UniProt O43293); conditions: Compound concentration 1000.0 nM
[3] = target: Interleukin-1 receptor-associated kinase 3 (Homo sapiens) (UniProt Q9Y616); conditions: Compound concentration 1000.0 nM
[4] = target: T1, Tyrosine-protein kinase ZAP-70 (Homo sapiens) (UniProt P43403); conditions: Compound concentration 1000.0 nM
T1 sequence (whole entry): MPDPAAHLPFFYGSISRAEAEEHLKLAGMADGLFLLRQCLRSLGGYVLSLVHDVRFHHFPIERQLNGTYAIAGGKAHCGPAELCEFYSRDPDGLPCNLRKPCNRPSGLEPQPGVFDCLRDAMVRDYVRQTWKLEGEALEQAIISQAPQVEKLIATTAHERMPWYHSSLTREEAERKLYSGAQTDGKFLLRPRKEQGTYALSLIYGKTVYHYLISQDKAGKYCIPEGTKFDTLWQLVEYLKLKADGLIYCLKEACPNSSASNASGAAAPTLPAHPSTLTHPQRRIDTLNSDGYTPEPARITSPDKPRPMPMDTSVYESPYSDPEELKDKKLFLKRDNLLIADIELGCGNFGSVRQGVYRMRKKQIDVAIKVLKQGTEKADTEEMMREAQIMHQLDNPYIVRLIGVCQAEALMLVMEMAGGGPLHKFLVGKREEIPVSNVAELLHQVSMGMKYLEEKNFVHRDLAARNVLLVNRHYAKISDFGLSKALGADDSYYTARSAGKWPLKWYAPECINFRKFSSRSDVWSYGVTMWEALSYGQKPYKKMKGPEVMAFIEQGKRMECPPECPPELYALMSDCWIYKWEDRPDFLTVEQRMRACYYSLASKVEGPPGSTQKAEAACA

[5] = target: Activin receptor type-2A (Homo sapiens) (UniProt P27037); conditions: Compound concentration 1000.0 nM
[6] = target: Tyrosine-protein kinase JAK1 (Homo sapiens) (UniProt P23458); conditions: Compound concentration 1000.0 nM
[7] = target: Myosin-IIIa (Homo sapiens) (UniProt Q8NEV4); conditions: Compound concentration 1000.0 nM
[8] = target: D(4) dopamine receptor (Homo sapiens) (UniProt P21917); conditions: Compound concentration 10.0 uM
[9] = target: T2, Rhodopsin kinase GRK1 (Homo sapiens) (UniProt Q15835); conditions: Compound concentration 1000.0 nM
T2 sequence (whole entry): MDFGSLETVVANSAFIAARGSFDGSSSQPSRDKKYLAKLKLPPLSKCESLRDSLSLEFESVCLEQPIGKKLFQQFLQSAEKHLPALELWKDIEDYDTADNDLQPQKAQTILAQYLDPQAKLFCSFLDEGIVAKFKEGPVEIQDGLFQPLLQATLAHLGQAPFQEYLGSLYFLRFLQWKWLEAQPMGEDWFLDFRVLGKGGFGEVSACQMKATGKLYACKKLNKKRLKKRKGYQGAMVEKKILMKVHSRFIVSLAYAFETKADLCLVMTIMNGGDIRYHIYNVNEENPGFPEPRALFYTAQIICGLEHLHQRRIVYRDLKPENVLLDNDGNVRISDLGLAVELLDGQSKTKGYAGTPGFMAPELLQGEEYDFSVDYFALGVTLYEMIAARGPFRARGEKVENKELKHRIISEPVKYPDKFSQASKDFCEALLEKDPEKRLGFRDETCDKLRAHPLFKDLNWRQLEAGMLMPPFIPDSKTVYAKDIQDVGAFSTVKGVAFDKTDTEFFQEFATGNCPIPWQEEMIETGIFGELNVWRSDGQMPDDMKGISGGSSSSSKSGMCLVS

[10] = target: T3, Serine/threonine-protein kinase Sgk3 (Homo sapiens) (UniProt Q96BR1); conditions: Compound concentration 1000.0 nM
T3 sequence (whole entry): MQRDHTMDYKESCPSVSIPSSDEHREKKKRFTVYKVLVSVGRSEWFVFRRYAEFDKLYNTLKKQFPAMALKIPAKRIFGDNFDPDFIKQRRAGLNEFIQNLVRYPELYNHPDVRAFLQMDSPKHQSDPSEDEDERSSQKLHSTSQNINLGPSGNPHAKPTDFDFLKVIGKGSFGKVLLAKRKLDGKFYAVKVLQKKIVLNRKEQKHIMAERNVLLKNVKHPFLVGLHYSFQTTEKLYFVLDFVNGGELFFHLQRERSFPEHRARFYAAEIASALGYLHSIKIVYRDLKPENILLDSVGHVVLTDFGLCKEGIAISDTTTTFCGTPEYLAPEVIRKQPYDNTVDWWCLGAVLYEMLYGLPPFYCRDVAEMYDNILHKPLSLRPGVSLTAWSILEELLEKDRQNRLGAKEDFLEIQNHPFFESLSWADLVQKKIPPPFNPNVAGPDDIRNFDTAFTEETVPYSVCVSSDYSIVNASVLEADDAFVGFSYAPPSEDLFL

[11] = target: T4, Inhibitor of nuclear factor kappa-B kinase subunit alpha (Homo sapiens) (UniProt O15111); conditions: Compound concentration 1000.0 nM
T4 sequence (whole entry): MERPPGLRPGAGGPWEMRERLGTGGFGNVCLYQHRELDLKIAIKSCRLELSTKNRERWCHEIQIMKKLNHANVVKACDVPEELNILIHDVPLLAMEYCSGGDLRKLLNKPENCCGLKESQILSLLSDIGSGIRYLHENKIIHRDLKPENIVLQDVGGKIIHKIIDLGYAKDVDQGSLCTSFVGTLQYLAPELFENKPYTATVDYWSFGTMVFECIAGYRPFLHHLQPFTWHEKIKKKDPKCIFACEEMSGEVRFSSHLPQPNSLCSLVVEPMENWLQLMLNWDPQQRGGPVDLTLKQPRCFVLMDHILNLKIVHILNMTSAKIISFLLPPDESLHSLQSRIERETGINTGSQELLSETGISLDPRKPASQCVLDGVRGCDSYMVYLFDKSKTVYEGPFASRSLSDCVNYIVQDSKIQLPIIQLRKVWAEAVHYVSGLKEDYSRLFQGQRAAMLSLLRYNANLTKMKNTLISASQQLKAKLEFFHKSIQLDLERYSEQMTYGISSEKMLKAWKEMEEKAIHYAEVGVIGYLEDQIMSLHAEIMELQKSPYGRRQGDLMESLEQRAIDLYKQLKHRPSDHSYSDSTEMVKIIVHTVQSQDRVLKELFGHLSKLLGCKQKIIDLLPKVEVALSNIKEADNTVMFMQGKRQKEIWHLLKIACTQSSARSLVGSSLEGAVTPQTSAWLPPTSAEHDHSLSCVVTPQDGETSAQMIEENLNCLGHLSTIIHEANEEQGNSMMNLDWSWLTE

[12] = target: TGF-beta receptor type-2 (Homo sapiens) (UniProt P37173); conditions: Compound concentration 1000.0 nM
[13] = target: Epidermal growth factor receptor (Homo sapiens) (UniProt P00533); conditions: Compound concentration 1000.0 nM

Activin receptor type-2A (Homo sapiens), sequence (P27037 whole entry): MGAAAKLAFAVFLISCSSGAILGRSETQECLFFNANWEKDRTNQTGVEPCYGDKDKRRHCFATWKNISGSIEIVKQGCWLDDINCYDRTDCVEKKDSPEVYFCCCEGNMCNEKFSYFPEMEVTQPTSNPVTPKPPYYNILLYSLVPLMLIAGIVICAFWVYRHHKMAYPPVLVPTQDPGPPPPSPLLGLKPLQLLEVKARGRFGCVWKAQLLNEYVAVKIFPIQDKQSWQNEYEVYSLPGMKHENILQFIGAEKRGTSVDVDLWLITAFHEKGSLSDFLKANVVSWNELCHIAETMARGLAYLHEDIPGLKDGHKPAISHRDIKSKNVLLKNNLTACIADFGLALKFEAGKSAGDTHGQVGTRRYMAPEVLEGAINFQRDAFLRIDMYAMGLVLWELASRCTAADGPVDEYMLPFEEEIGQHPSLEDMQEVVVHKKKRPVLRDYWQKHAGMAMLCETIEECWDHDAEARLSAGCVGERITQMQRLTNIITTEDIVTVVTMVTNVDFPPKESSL
D(4) dopamine receptor (Homo sapiens), sequence (P21917 whole entry): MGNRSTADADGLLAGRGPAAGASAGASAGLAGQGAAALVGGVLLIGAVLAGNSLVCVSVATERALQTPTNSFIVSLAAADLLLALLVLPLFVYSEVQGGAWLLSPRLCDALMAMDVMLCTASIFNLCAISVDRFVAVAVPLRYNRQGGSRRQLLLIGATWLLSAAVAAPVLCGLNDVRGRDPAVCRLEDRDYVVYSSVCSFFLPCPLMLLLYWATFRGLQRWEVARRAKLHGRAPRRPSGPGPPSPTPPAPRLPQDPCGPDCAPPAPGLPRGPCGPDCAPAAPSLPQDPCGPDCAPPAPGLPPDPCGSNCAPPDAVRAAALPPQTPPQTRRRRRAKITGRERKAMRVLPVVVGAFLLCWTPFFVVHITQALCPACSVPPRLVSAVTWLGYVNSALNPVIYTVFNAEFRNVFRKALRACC
Myosin-IIIa (Homo sapiens), sequence (Q8NEV4 whole entry): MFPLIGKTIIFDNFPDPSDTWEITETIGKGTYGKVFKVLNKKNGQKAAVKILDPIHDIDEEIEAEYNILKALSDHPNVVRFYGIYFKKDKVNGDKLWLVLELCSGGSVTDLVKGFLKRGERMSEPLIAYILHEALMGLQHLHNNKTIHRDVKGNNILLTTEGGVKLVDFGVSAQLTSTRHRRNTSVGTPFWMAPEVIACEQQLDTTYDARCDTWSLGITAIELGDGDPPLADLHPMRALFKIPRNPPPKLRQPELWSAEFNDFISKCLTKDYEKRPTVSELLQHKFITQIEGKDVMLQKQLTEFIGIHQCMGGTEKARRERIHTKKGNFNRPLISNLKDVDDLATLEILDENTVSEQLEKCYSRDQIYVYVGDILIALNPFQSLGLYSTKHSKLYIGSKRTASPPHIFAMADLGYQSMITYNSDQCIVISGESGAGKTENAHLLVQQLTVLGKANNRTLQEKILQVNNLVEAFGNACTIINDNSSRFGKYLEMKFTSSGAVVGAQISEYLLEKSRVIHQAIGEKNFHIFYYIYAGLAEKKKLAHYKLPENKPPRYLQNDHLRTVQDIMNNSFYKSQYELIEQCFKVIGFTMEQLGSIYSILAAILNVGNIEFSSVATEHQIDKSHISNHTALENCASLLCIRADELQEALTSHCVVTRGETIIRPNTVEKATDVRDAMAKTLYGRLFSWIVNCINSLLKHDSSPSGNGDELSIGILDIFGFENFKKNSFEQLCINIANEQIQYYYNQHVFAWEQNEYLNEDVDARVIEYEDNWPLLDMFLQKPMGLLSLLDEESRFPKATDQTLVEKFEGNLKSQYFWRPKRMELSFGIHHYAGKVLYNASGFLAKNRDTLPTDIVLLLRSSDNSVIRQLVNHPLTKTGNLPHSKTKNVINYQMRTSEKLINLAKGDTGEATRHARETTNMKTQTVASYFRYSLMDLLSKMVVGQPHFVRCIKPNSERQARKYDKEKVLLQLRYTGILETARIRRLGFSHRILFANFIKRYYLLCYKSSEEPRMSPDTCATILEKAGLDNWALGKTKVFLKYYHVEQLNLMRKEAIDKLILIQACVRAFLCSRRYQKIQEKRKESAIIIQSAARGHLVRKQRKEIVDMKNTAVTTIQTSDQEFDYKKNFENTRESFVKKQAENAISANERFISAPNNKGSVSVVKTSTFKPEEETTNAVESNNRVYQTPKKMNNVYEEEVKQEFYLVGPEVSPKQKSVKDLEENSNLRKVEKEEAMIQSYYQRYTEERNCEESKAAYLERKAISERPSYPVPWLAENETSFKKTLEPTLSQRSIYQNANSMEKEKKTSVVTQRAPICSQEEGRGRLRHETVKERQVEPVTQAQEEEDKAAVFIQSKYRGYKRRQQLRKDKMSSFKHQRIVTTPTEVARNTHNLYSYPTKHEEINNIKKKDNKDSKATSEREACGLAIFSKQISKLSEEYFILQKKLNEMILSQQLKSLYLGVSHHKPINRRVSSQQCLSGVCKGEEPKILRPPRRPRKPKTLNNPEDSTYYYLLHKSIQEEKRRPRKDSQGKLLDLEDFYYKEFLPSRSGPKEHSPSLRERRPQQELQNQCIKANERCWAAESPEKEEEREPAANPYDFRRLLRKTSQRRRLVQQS
Interleukin-1 receptor-associated kinase 3 (Homo sapiens), sequence (Q9Y616 whole entry): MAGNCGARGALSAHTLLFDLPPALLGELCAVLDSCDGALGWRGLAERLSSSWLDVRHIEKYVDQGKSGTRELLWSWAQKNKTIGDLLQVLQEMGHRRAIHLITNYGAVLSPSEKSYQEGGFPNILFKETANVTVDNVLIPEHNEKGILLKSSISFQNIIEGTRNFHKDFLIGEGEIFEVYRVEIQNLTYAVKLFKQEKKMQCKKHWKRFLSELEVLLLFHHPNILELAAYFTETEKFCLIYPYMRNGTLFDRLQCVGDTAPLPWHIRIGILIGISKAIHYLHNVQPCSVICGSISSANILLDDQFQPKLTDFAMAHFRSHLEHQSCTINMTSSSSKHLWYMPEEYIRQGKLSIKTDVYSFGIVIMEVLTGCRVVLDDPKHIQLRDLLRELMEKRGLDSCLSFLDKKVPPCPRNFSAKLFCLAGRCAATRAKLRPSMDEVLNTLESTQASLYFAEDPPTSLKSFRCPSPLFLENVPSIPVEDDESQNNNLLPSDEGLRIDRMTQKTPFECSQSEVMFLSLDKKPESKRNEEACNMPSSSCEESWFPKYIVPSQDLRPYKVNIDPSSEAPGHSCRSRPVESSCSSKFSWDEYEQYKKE
Death-associated protein kinase 3 (Homo sapiens), sequence (O43293 whole entry, looked up): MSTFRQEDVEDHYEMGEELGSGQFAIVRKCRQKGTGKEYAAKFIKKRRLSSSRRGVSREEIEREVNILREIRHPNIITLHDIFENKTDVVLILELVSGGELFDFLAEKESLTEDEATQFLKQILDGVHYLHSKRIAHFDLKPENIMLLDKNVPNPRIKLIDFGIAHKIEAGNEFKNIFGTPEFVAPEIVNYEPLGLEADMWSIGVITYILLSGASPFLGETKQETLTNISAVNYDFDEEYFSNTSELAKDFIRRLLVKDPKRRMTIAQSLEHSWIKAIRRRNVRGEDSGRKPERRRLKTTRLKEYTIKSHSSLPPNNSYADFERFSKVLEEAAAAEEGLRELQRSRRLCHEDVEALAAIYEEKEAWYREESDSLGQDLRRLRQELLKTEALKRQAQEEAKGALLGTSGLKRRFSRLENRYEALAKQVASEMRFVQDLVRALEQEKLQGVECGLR
Mast/stem cell growth factor receptor Kit (Homo sapiens), P10721 [D816H], sequence (P10721 whole entry D816H): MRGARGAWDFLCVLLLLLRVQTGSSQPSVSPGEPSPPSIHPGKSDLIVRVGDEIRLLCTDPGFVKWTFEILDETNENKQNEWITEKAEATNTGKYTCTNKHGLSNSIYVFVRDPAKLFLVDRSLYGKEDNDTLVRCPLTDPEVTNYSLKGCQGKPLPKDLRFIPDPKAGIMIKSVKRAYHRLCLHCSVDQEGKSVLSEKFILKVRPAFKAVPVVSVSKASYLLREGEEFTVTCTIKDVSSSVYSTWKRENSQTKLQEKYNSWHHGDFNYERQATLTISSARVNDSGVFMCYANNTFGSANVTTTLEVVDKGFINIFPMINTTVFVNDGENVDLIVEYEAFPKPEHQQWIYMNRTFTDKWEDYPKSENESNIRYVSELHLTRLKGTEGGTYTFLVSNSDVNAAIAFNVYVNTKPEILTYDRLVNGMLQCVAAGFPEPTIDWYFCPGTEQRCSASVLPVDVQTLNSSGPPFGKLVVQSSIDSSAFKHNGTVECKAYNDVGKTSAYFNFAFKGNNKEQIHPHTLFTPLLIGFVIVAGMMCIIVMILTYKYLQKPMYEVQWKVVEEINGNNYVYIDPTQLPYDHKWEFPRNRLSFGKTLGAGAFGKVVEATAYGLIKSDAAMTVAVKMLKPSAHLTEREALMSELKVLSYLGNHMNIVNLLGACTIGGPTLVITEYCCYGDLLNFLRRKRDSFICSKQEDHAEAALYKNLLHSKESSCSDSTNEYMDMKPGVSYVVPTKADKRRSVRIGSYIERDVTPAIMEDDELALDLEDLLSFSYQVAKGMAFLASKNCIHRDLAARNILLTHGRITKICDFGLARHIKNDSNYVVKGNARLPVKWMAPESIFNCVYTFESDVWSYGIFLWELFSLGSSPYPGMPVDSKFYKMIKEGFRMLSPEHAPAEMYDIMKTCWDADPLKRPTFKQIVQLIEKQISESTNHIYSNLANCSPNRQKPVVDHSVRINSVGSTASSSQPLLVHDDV

| Compound | residual activity [1] [%] | residual activity [2] [%] | residual activity [3] [%] | residual activity [4] [%] | residual activity [5] [%] | residual activity [6] [%] | residual activity [7] [%] | inhibition [8] [%] | residual activity [9] [%] | residual activity [10] [%] | residual activity [11] [%] | residual activity [12] [%] | residual activity [13] [%] |
| --- | --- | --- | --- | --- | --- | --- | --- | --- | --- | --- | --- | --- | --- |
| CC1=C(C#N)C(c2ccc3c(c2)c(NC(=O)c2ccccc2C)nn3C)C(C#N)=C(C)N1 [BAY-974] | 64 | 88 | 79 | 90 | 97 | 90 | 86 | 0.21 | 88 | 95 | 77 | 99 | 84 |
| CCc1ccccc1C(=O)Nc1n[nH]c2c(C)c(F)c(C3C(C#N)=C(C)N(C)C(C)=C3C#N)cc12 [BAY-3827] | 100 | 71 | 98 | 100 | 100 | 91 | 68 | -0.18 | 43 | 91 | 87 | 82 | 85 |
